Active and inactive are the calls of the source. The calls are words filed in the database; no cut-off is given here. Bounds are passed on as bounds.

The values that follow come from ChEMBL document CHEMBL4411344, “Synthesis and biological evaluation of new long-chain squaramides as anti-chagasic agents in the BALB/c mouse model” (Bioorg Med Chem, 2019).

The test system of data set [1] is Trypanosoma cruzi. The data set can be described thus: Antitrypanosomal activity against Trypanosoma cruzi MHOM/Pe/2011/Arequipa DTU 5 trypomastigotes infected in Balb/c mouse assessed as parasite-free stomach at 20 mg/kg, po pretreated once daily for 5 consecutive days starting from day 10 post infection followed by cyclophosphamide-induced immunosuppression on day 100 post infection measured on day 127 post infection by PCR method. Format: functional.

A short description of data set [2]: Hepatotoxicity in Balb/c mouse infected with Trypanosoma cruzi MHOM/Pe/2011/Arequipa DTU 5 trypomastigotes assessed as increase in ratio of serum ALT to GPT level at 20 mg/kg, po once daily for 5 consecutive days starting from day 75 post infection measured on day 81 post infection relative to control. Particulars: in vivo. Format: toxicity, organism-based.
The subject of data set [3] is Trypanosoma cruzi. The data set can be described thus: Antitrypanosomal activity against Trypanosoma cruzi MHOM/Pe/2011/Arequipa DTU 5 trypomastigotes infected in Balb/c mouse assessed as reduction in Ig-G level in serum at 20 mg/kg, po pretreated once daily for 5 consecutive days starting from day 75 post infection followed by cyclophosphamide-induced immunosuppression on day 100 post infection measured on day 127 post infection by ELISA. In kind it is functional, organism-based.

Data set [4] concerns Trypanosoma cruzi. The data set can be described thus: Antitrypanosomal activity against Trypanosoma cruzi MHOM/Pe/2011/Arequipa DTU 5 trypomastigotes infected in Balb/c mouse assessed as parasite-free oesophagus at 20 mg/kg, po pretreated once daily for 5 consecutive days starting from day 10 post infection followed by cyclophosphamide-induced immunosuppression on day 100 post infection measured on day 127 post infection by PCR method. In kind it is functional.

In data set [5] the test system is Trypanosoma cruzi. In words: Antitrypanosomal activity against Trypanosoma cruzi MHOM/Pe/2011/Arequipa DTU 5 trypomastigotes infected in Balb/c mouse assessed as reduction in splenomegaly at 20 mg/kg, po once daily for 5 consecutive days starting from day 75 post infection measured on day 127 post infection relative to control. Format: functional.
Data set [6] concerns Trypanosoma cruzi. In words: Antitrypanosomal activity against Trypanosoma cruzi MHOM/Pe/2011/Arequipa DTU 5 trypomastigotes infected in Balb/c mouse assessed as parasite-free bone marrow at 20 mg/kg, po pretreated once daily for 5 consecutive days starting from day 10 post infection followed by cyclophosphamide-induced immunosuppression on day 100 post infection measured on day 127 post infection by PCR method. Format: functional.

Data set [7] deals with Trypanosoma cruzi. The data set can be described thus: Antitrypanosomal activity against Trypanosoma cruzi MHOM/Pe/2011/Arequipa DTU 5 trypomastigotes infected in Balb/c mouse assessed as parasite-free heart at 20 mg/kg, po pretreated once daily for 5 consecutive days starting from day 75 post infection followed by cyclophosphamide-induced immunosuppression on day 100 post infection measured on day 127 post infection by PCR method. In kind it is functional.

The test system of data set [8] is Trypanosoma cruzi. The data set can be described thus: Antitrypanosomal activity against Trypanosoma cruzi MHOM/Pe/2011/Arequipa DTU 5 trypomastigotes infected in Balb/c mouse assessed as parasite-free brain at 20 mg/kg, po pretreated once daily for 5 consecutive days starting from day 10 post infection followed by cyclophosphamide-induced immunosuppression on day 100 post infection measured on day 127 post infection by PCR method. Format: functional.

The subject of data set [9] is Trypanosoma cruzi. The data set can be described thus: Antitrypanosomal activity against Trypanosoma cruzi MHOM/Pe/2011/Arequipa DTU 5 trypomastigotes infected in Balb/c mouse assessed as parasite-free oesophagus at 20 mg/kg, po pretreated once daily for 5 consecutive days starting from day 75 post infection followed by cyclophosphamide-induced immunosuppression on day 100 post infection measured on day 127 post infection by PCR method. Format: functional.

Data set [10] has as its system Trypanosoma cruzi. In words: Antitrypanosomal activity against Trypanosoma cruzi MHOM/Pe/2011/Arequipa DTU 5 trypomastigotes infected in Balb/c mouse assessed as parasite-free brain at 20 mg/kg, po pretreated once daily for 5 consecutive days starting from day 75 post infection followed by cyclophosphamide-induced immunosuppression on day 100 post infection measured on day 127 post infection by PCR method. In kind it is functional.

The subject of data set [11] is Trypanosoma cruzi. The data set can be described thus: Antitrypanosomal activity against Trypanosoma cruzi MHOM/Pe/2011/Arequipa DTU 5 trypomastigotes infected in Balb/c mouse assessed as parasite-free adipose tissue at 20 mg/kg, po pretreated once daily for 5 consecutive days starting from day 75 post infection followed by cyclophosphamide-induced immunosuppression on day 100 post infection measured on day 127 post infection by PCR method. In kind it is functional.

For data set [12], the system named is Trypanosoma cruzi. In words: Antitrypanosomal activity against Trypanosoma cruzi MHOM/Pe/2011/Arequipa DTU 5 trypomastigotes infected in Balb/c mouse assessed as parasite-free muscle at 20 mg/kg, po pretreated once daily for 5 consecutive days starting from day 10 post infection followed by cyclophosphamide-induced immunosuppression on day 100 post infection measured on day 127 post infection by PCR method. Format: functional.

Data set [13] deals with Trypanosoma cruzi. The data set can be described thus: Antitrypanosomal activity against Trypanosoma cruzi MHOM/Pe/2011/Arequipa DTU 5 trypomastigotes infected in Balb/c mouse assessed as parasite-free spleen at 20 mg/kg, po pretreated once daily for 5 consecutive days starting from day 10 post infection followed by cyclophosphamide-induced immunosuppression on day 100 post infection measured on day 127 post infection by PCR method. Format: functional.

In data set [14] the test system is Trypanosoma cruzi. In words: Trypanocidal activity against Trypanosoma cruzi MHOM/Pe/2011/Arequipa DTU 5 amastigotes infected in African green monkey Vero cells assessed as reduction in number of amastigotes per infected cells at log -0.41 to 1.7 after 72 hrs by Giemsa-staining based assay. In kind it is functional, organism-based.
A short description of data set [15]: Hepatotoxicity in Balb/c mouse infected with Trypanosoma cruzi MHOM/Pe/2011/Arequipa DTU 5 trypomastigotes assessed as increase in ratio of serum AST to GOT level at 20 mg/kg, po once daily for 5 consecutive days starting from day 10 post infection measured on day 16 post infection relative to control. Format: toxicity, organism-based. The settings on record: in vivo.

Data set [16] concerns Trypanosoma cruzi. In words: Antitrypanosomal activity against Trypanosoma cruzi MHOM/Pe/2011/Arequipa DTU 5 trypomastigotes infected in Balb/c mouse assessed as reduction in Ig-G level in serum at 20 mg/kg, po pretreated once daily for 5 consecutive days starting from day 10 post infection followed by cyclophosphamide-induced immunosuppression on day 100 post infection measured on day 127 post infection by ELISA. In kind it is functional, organism-based. For orientation: An ELISA detects its analyte on a solid surface through an enzyme-linked reagent.

For data set [17], the system named is Trypanosoma cruzi. The data set can be described thus: Antitrypanosomal activity against Trypanosoma cruzi MHOM/Pe/2011/Arequipa DTU 5 trypomastigotes infected in Balb/c mouse assessed as reduction in Ig-G level in serum at 20 mg/kg, po once daily for 5 consecutive days starting from day 10 post infection measured on day 100 post infection by ELISA. In kind it is functional, organism-based.

Data set [18] is described as follows: Hepatotoxicity in Balb/c mouse infected with Trypanosoma cruzi MHOM/Pe/2011/Arequipa DTU 5 trypomastigotes assessed as increase in total bilirubin level at 20 mg/kg, po once daily for 5 consecutive days starting from day 75 post infection measured on day 81 post infection relative to control. In kind it is toxicity, organism-based. The settings on record: in vivo.

Data set [19] deals with Trypanosoma cruzi. In words: Antitrypanosomal activity against Trypanosoma cruzi MHOM/Pe/2011/Arequipa DTU 5 trypomastigotes infected in Balb/c mouse assessed as parasite-free adipose tissue at 20 mg/kg, po pretreated once daily for 5 consecutive days starting from day 10 post infection followed by cyclophosphamide-induced immunosuppression on day 100 post infection measured on day 127 post infection by PCR method. In kind it is functional.

Data set [20] deals with Trypanosoma cruzi. The data set can be described thus: Antitrypanosomal activity against Trypanosoma cruzi MHOM/Pe/2011/Arequipa DTU 5 trypomastigotes infected in Balb/c mouse assessed as parasite-free muscle at 20 mg/kg, po pretreated once daily for 5 consecutive days starting from day 75 post infection followed by cyclophosphamide-induced immunosuppression on day 100 post infection measured on day 127 post infection by PCR method. Format: functional.

For data set [21], the system named is Trypanosoma cruzi. In words: Trypanocidal activity against Trypanosoma cruzi MHOM/Pe/2011/Arequipa DTU 5 epimastigotes after 72 hrs by resazurin dye based assay. In kind it is functional, organism-based. The settings on record: MHOM/Pe/2011/Arequipa DTU 5, 72 h. On the technique in general: The colour change of resazurin is a common sign of viable cells or microbes.

With `O=C(Cn1ccnc1[N+](=O)[O-])NCc1ccccc1` [BENZNIDAZOLE], the Activity in the data set on Trypanosoma cruzi [1] was 33%; in [2] it was 20 to 30 U/L; in the data set with Trypanosoma cruzi [4], 33%; with Trypanosoma cruzi [6], 33%; in the data set on Trypanosoma cruzi [7] it was 55%; in the data set with Trypanosoma cruzi [8] it was 33%. Besides, the Activity in the data set on Trypanosoma cruzi [9] was 55%; in the data set on Trypanosoma cruzi [10] it was 55%; in the data set on Trypanosoma cruzi [11] it was 55%; in the data set on Trypanosoma cruzi [12], 33%; in the data set with Trypanosoma cruzi [13], 33%; in data set [15], over 40 U/L. In addition, the Activity in data set [18] was determined as 30%; in the data set on Trypanosoma cruzi [19], 33%; in the data set with Trypanosoma cruzi [20], 55%. Further, the result in the data set on Trypanosoma cruzi [3], with Trypanosoma cruzi [5], with Trypanosoma cruzi [14], with Trypanosoma cruzi [16] and in the data set with Trypanosoma cruzi [17] was Active.

Turning to `CCCCCCNc1c(N(C)CCCN(C)C)c(=O)c1=O`, the result in the data set with Trypanosoma cruzi [1], in the data set on Trypanosoma cruzi [3], with Trypanosoma cruzi [4], in the data set with Trypanosoma cruzi [6], with Trypanosoma cruzi [7] and with Trypanosoma cruzi [8] was inactive. The outcome in the data set on Trypanosoma cruzi [9], in the data set with Trypanosoma cruzi [10], in the data set with Trypanosoma cruzi [11], with Trypanosoma cruzi [12], with Trypanosoma cruzi [13] and with Trypanosoma cruzi [16] was inactive. In addition, the result in the data set on Trypanosoma cruzi [17], with Trypanosoma cruzi [19] and in the data set with Trypanosoma cruzi [20] was inactive. Besides, the half-inhibitory concentration (IC50) (in general, the concentration needed to halve the response being measured) in the data set on Trypanosoma cruzi [21] is 20.3 µM. In addition, the Activity in [2] is 20 to 30 U/L; in data set [15], 30 to 40 U/L; in data set [18], 10%. In addition, the result in the data set with Trypanosoma cruzi [5] and in the data set with Trypanosoma cruzi [14] was Active.

In the case of `CCCCCCCCCCCCCCCCNc1c(N(C)CCCN(C)C)c(=O)c1=O`, the Activity with Trypanosoma cruzi [1] was 67%; in [2] it was 20 to 30 U/L; with Trypanosoma cruzi [4] it was 67%; in the data set with Trypanosoma cruzi [5] it was 55%; in the data set on Trypanosoma cruzi [6], 67%; in the data set on Trypanosoma cruzi [7], 78%. Also, the Activity in the data set with Trypanosoma cruzi [8] is 67%; with Trypanosoma cruzi [9], 78%; with Trypanosoma cruzi [10], 78%; in the data set on Trypanosoma cruzi [11], 78%; in the data set on Trypanosoma cruzi [12] it was 67%; with Trypanosoma cruzi [13] it was 67%. The Activity is 10 to 20 U/L in data set [15], 20% in data set [18], 67% in the data set on Trypanosoma cruzi [19] and 78% with Trypanosoma cruzi [20]. In the data set on Trypanosoma cruzi [21], this compound came in with a half-inhibitory concentration (IC50) of 7.3 µM. The result with Trypanosoma cruzi [3], in the data set with Trypanosoma cruzi [14], in the data set on Trypanosoma cruzi [16] and with Trypanosoma cruzi [17] was Active.
